Source: patent US7659304B2, “Tryptophan derivative and application thereof” (priority 2005, dated 2010)
One block for each compound: values may come before it.

Assays:
osteoclasts [1] = test: Influence on osteoclasts: tartrate-resistant acid phosphatase (TRAP) activity in cultured goldfish scales; format: cell-based; details: for TRAP activity: Amount of para-nitrophenol produced (mean ± standard error): 10^−6 M, scales cultured at 25° C. for 6 hours, control 0.700 ± 0.041
Procedure: The influence of the tryptophan derivatives on bone cells was tested according to a method described in N. Suzuki and A. Hattori, J. Pineal Res., 33, 253-258 (2002). Required pieces of scales were ablated from female goldfish (body weight: around 30 g) under anesthesia with MS222 (ethyl 3-aminobenzoate, methane sulfonic acid salt) (Aldrich). The scales were washed twice with an Eagle's minimum essential medium (Dainippon Pharmaceutical Co., Ltd.) containing 1% antibiotic (penicillin-streptomycin mixture). The same medium was added at 1 ml/well to a 24-well plate. The scales were added at several pieces (usually eight)/well thereto. Each tryptophan derivative was added at a concentration of 10^−6 M to each well. Subsequently, these scales were cultured at 25° C. for 6 hours. A tryptophan derivative-free group (control) was also prepared to compare the effects on bone cells. In this test, two groups, one for osteoclasts and the other for osteoblasts, were used for the tryptophan derivatives and compared them with the control. To ensure the obtained results, the duplicate test was performed. Thus, in the 24-well plate, 6 tryptophan derivatives can be examined. After culture, the medium was removed. The scales were fixed by the addition of 0.05 M cacodylic acid buffer (pH 7.4) containing 10% formalin. These scales were stored in 0.05 M cacodylic acid buffer at 4° C. until enzyme activity measurement. • (1) Influence on Osteoclasts: Tartrate-Resistant Acid Phosphatase (TRAP) Activity Measurement The scales treated by fixation were moved and weighed. After measurement, the scales were put into a 96-well microplate. To each well, 2001 of 100 mM acetate buffer (pH 5.3) containing 20 mM tartrate and 10 mM para-nitrophenol phosphate (substrate) was added. Reaction was performed at 25° C. for 20 minutes and subsequently terminated by the addition of a 3 M sodium hydroxide aqueous solution (50±1). Then, […] of the solution after the completion of reaction was transferred to another microplate. The amount of para-nitrophenol (p-NP) produced by TRAP was measured with a spectrophotometer (405 nm). The osteoclast activity was indicated as the amount of p-NP produced by the decomposition of para-nitrophenol phosphate per g of scale per minute.

osteoblasts [2] = test: Influence on osteoblasts: alkaline phosphatase (ALP) activity in cultured goldfish scales; format: cell-based; details: for ALP activity: Amount of para-nitrophenol produced (mean ± standard error): 10^−6 M, scales cultured at 25° C. for 6 hours, control 1.37 ± 0.18
Procedure: The influence of the tryptophan derivatives on bone cells was tested according to a method described in N. Suzuki and A. Hattori, J. Pineal Res., 33, 253-258 (2002). Required pieces of scales were ablated from female goldfish (body weight: around 30 g) under anesthesia with MS222 (ethyl 3-aminobenzoate, methane sulfonic acid salt) (Aldrich). The scales were washed twice with an Eagle's minimum essential medium (Dainippon Pharmaceutical Co., Ltd.) containing 1% antibiotic (penicillin-streptomycin mixture). The same medium was added at 1 ml/well to a 24-well plate. The scales were added at several pieces (usually eight)/well thereto. Each tryptophan derivative was added at a concentration of 10^−6 M to each well. Subsequently, these scales were cultured at 25° C. for 6 hours. A tryptophan derivative-free group (control) was also prepared to compare the effects on bone cells. In this test, two groups, one for osteoclasts and the other for osteoblasts, were used for the tryptophan derivatives and compared them with the control. To ensure the obtained results, the duplicate test was performed. Thus, in the 24-well plate, 6 tryptophan derivatives can be examined. After culture, the medium was removed. The scales were fixed by the addition of 0.05 M cacodylic acid buffer (pH 7.4) containing 10% formalin. These scales were stored in 0.05 M cacodylic acid buffer at 4° C. until enzyme activity measurement. • (1) […] The scales treated by fixation were moved and weighed. After measurement, the scales were put into a 96-well microplate. To each well, 2001 of 100 mM tris-HCl buffer (pH 9.5) containing 10 mM para-nitrophenol phosphate (substrate), 1 mM magnesium chloride, and 0.1 mM zinc chloride was added. Reaction was performed at 25° C. for 15 minutes and terminated by the addition of a 3 M sodium hydroxide aqueous solution (50 μl). Then, 150 μl of the solution after the completion of reaction was transferred to another microplate. The amount of p-NP produced by ALP was measured with a spectrophotometer (405 nm) to determine the activity.

[3] = test system: bone metabolism of ovariectomized model rat; test: Effect on bone metabolism of ovariectomized model rat (femur pQCT); format: in vivo; details: OVX rats, 0.17 mg/rat by gavage once a day for 6 weeks
Procedure: A test substance was the compound No. 4 ((S)-(+)-N-acetyl-2,4,6-tribromo-5-methoxytryptophan methyl ester), which was a white powder having a molecular weight of 527, and was stored at room temperature. Commercially available dimethyl sulfoxide (DMSO, Wako Pure Chemical Industries, Ltd.) was purchased as a solvent and stored at room temperature. • 2. Method for Preparing Test Substance
The solution of the test substance was administered in a volume of 100 μL/rat in consideration of the toxicity of the solvent. For a dose of 0.17 mg of the test substance (compound No. 4)/rat, 86.6 mg of the test substance was weighed and dissolved in 50.9 mL of the solvent (0.17 mg/0.1 mL). • 3. Animal Used and Raising Conditions
Five-week-old female SPF SD (Crl:SD) rats were obtained from Charles River Laboratories Japan, Inc. After seven-day acclimation and quarantine, 6-week-old ovariectomized models were prepared. Administration was performed from the day following model preparation.
The animals were raised in the rat/mouse room of a test laboratory set to a temperature of 24±3° C., a humidity of 50±20%, the number of ventilations of approximately 10 to 20 times/hour, a lighting time of 12 hours/day (8:00 light on, 20:00 light off), and an illuminance of 150 to 300 Lux. • 4. Administration Method
The test substance was administered once a day for 6 weeks by gavage administration to the rats without anesthesia under non-fasting by use of a feeding needle made of a metal and a syringe barrel. In this context, 1 week is defined as 7 days, and the day following ovariectomy when the administration was initiated is defined as Day 1. The amount of the solution administered was set to 0.1 mL/rat.
The bone densities of the left femurs were measured using a peripheral bone density measurement apparatus PQCT (abbreviation of peripheral Quantitative Computed Tomography, XCT-Research SA+, Stratec). For cancellous bone parameter measurement, the metaphyseal region was sliced at a distance of 3 mm from the distal growth cartilage. Alternatively, for cortical bone parameter measurement, the diaphyseal region was sliced at a distance of 13 mm therefrom. The measurement parameters were a bone density (total density and cancellous bone), an area (total area and cancellous bone), and SSI (Stress Strain Index) for the metaphyseal region and were the bone density, area, and thickness of the cortical bone, a periosteal circumference length, an endosteal circumference length, and SSI for the diaphyseal region. Software used was Rev.5.50e.

osteoclasts [4] = details: literature report; cited from earlier work
osteoblasts [5] = details: literature report; cited from earlier work

SMILES: COC(=O)[C@H](Cc1c(Br)n(C(=O)OC(C)(C)C)c2cc(Br)c(OC)c(Br)c12)NC(C)=O [Compound 5, (S)-(+)-N-acetyl-2,4,6-tribromo-1-t-butoxycarbonyl-5-methoxytryptophan methyl ester]
- TRAP activity: Amount of para-nitrophenol produced (mean ± standard error) (osteoclasts [1]): 0.747 ± 0.063 nmol/g of scale/min
- ALP activity: Amount of para-nitrophenol produced (mean ± standard error) (osteoblasts [2]): 2.48 ± 0.42 nmol/g of scale/min

SMILES: C#CCn1c(Br)c(C[C@H](NC(C)=O)C(=O)OC)c2c(Br)c(OC)c(Br)cc21 [Compound 7, (S)-(+)-N-acetyl-2,4,6-tribromo-5-methoxy-1-propargyltryptophan methyl ester]
- TRAP activity: Amount of para-nitrophenol produced (mean ± standard error) (osteoclasts [1]): 0.838 ± 0.056 nmol/g of scale/min
- ALP activity: Amount of para-nitrophenol produced (mean ± standard error) (osteoblasts [2]): 2.50 ± 0.51 nmol/g of scale/min

SMILES: COC(=O)[C@H](Cc1c(Br)n(Cc2ccccc2)c2cc(Br)c(OC)c(Br)c12)NC(C)=O [Compound 8, (S)-(+)-N-acetyl-1-benzyl-2,4,6-tribromo-5-methoxytryptophan methyl ester]
- TRAP activity: Amount of para-nitrophenol produced (mean ± standard error) (osteoclasts [1]): 0.829 ± 0.047 nmol/g of scale/min
- ALP activity: Amount of para-nitrophenol produced (mean ± standard error) (osteoblasts [2]): 1.17 ± 0.32 nmol/g of scale/min

SMILES: C=CCn1c(Br)c(C[C@H](NC(C)=O)C(=O)OC)c2c(Br)c(OC)c(Br)cc21 [Compound 6, (S)-(+)-N-acetyl-1-allyl-2,4,6-tribromo-5-methoxytryptophan methyl ester]
- TRAP activity: Amount of para-nitrophenol produced (mean ± standard error) (osteoclasts [1]): 0.882 ± 0.106 nmol/g of scale/min
- ALP activity: Amount of para-nitrophenol produced (mean ± standard error) (osteoblasts [2]): 2.39 ± 0.40 nmol/g of scale/min

SMILES: COC(=O)[C@H](Cc1c(Br)[nH]c2cc(Br)c(OC)cc12)NC(C)=O [Compound 2, (S)-(+)-N-acetyl-2,6-dibromo-5-methoxytryptophan methyl ester]
- melting point: 174 to 175 °C

The next lines start with results.

- melting point: 198 to 199 °C
SMILES: COC(=O)[C@H](Cc1c(Br)[nH]c2cc(Br)c(OC)c(Br)c12)NC(C)=O [Compound 4, (S)-(+)-N-acetyl-2,4,6-tribromo-5-methoxytryptophan methyl ester]
- TRAP activity: Amount of para-nitrophenol produced (mean ± standard error) (osteoclasts [1]): 0.699 ± 0.064 nmol/g of scale/min
- ALP activity: Amount of para-nitrophenol produced (mean ± standard error) (osteoblasts [2]): 2.62 ± 0.20 nmol/g of scale/min
- bone density of the cancellous bone (metaphyseal region) compared with OVX + Vehicle group (in words) [3]: increased
- change in the diaphyseal region compared with OVX + Vehicle group (in words) [3]: no change
- total bone density of the metaphyseal region compared with OVX + Vehicle group (in words) [3]: increased
- Diaphyseal region SSI Polar ([3]; left femur, OVX + Vehicle 6.753 ± 0.380): 6.877 ± 0.605
- Diaphyseal region Endosteal circumference length ([3]; left femur, OVX + Vehicle 8.360 ± 0.467): 8.260 ± 0.666 mm
- Metaphyseal region Area Cancellous bone ([3]; left femur, OVX + Vehicle 9.47 ± 1.52): 7.44 ± 0.47 mm^2
- Metaphyseal region SSI Polar ([3]; left femur, OVX + Vehicle 9.801 ± 0.574): 11.474 ± 0.346
- Diaphyseal region Periosteal circumference length ([3]; left femur, OVX + Vehicle 11.819 ± 0.333): 11.729 ± 0.455 mm
- Metaphyseal region Area Total area ([3]; left femur, OVX + Vehicle 21.69 ± 1.61): 23.67 ± 1.34 mm^2
- Metaphyseal region Bone density Cancellous bone ([3]; left femur, OVX + Vehicle 192.9 ± 24.6): 253.4 ± 2.9 mg/mL
- Metaphyseal region Bone density Total density ([3]; left femur, OVX + Vehicle 473.1 ± 29.3): 520.4 ± 31.7 mg/mL
- Diaphyseal region Thickness ([3]; cortical bone, left femur, OVX + Vehicle 0.551 ± 0.021): 0.552 ± 0.038 mm
- Diaphyseal region Area ([3]; cortical bone, left femur, OVX + Vehicle 5.55 ± 0.02): 5.50 ± 0.17 mm^2
- Diaphyseal region Bone density ([3]; cortical bone, left femur, OVX + Vehicle 1265.7 ± 15.9): 1254.9 ± 14.6 mg/mL

- melting point: 218 to 220 °C
SMILES: COC(=O)[C@H](Cc1c(Br)[nH]c2c(Br)cc(OC)c(Br)c12)NC(C)=O [Compound 3, (S)-(+)-N-acetyl-2,4,7-tribromo-5-methoxytryptophan methyl ester]

- action on osteoclasts (in words) (osteoclasts [1]; conclusion from Table 1): inhibitory
- action on osteoblasts (in words) (osteoblasts [2]; conclusion from Table 2): inhibitory
SMILES: COc1ccc2[nH]cc(CCNC(C)=O)c2c1 [Melatonin, N-acetyl-5-methoxytryptamine, reference compound]
- TRAP activity: Amount of para-nitrophenol produced (mean ± standard error) (osteoclasts [1]): 0.467 ± 0.052 nmol/g of scale/min
- ALP activity: Amount of para-nitrophenol produced (mean ± standard error) (osteoblasts [2]): 1.06 ± 0.17 nmol/g of scale/min
- action on osteoclasts (in words), reported in Non-Patent Document 1 (osteoclasts [4]): inhibitory
- action on osteoblasts (in words), reported in Non-Patent Document 1 (osteoblasts [5]): inhibitory
